Patent US20180179499A1, “BIOBASED PRODUCTION OF FUNCTIONALIZED ALPHA-SUBSTITUTED ACRYLATES AND C4-DICARBOXYLATES” (BIOAMBER INC., priority 2015, published 2018)
Residue numbers refer to the chain shown, from its start. Numbers in names are those of the source.

B1: ScLys20: candidate synthase lys20, Saccharomyces cerevisiae, GenBank CAA58264 (protein, UniProt P48570 1-428, looked up)
Homocitrate synthase, …: MTAAKPNPYAAKPGDYLSNVNNFQLIDSTLREGEQFANAFFDTEKKIEIARALDDFGVDYIELTSPVASEQSRKDCEAICKLGLKAKILTHIRCHMDDAKVAVETGVDGVDVVIGTSKFLRQYSHGKDMNYIAKSAVEVIEFVKSKGIEIRFSSEDSFRSDLVDLLNIYKTVDKIGVNRVGIADTVGCANPRQVYELIRTLKSVVSCDIECHFHNDTGCAIANAYTALEGGARLIDVSVLGIGERNGITPLGGLMARMIVAAPDYVKSKYKLHKIRDIENLVADAVEVNIPFNNPITGFCAFTHKAGIHAKAILANPSTYEILDPHDFGMKRYIHFANRLTGWNAIKARVDQLNLNLTDDQIKEVTAKIKKLGDVRSLNIDDVDSIIKNFHAEVSTPQVLSAKKNKKNDSDVPELATIPAAKRTKPSA
B2: EcLeuA: candidate synthase LeuA, Escherichia coli, GenBank AAC73185 (protein, UniProt P09151 2-523, looked up)
2-isopropylmalate synthase: SQQVIIFDTTLRDGEQALQASLSVKEKLQIALALERMGVDVMEVGFPVSSPGDFESVQTIARQVKNSRVCALARCVEKDIDVAAESLKVAEAFRIHTFIATSPMHIATKLRSTLDEVIERAIYMVKRARNYTDDVEFSCEDAGRTPIADLARVVEAAINAGATTINIPDTVGYTMPFEFAGIISGLYERVPNIDKAIISVHTHDDLGLAVGNSLAAVHAGARQVEGAMNGIGERAGNCSLEEVIMAIKVRKDILNVHTAINHQEIWRTSQLVSQICNMPIPANKAIVGSGAFAHSSGIHQDGVLKNRENYEIMTPESIGLNQIQLNLTSRSGRAAVKHRMDEMGYKESEYNLDNLYDAFLKLADKKGQVFDYDLEALAFIGKQQEEPEHFRLDYFSVQSGSNDIATAAVKLACGEEVKAEAANGNGPVDAVYQAINRITEYNVELVKYSLTAKGHGKDALGQVDIVANYNGRRFHGVGLATDIVESSAKAMVHVLNNIWRAAEVEKELQRKAQHNENNKETV
B3: LiLeuA: candidate synthase LeuA/CimA, Leptospira interogans, GenBank AAN49401 (protein, UniProt Q72RL9 1-501, looked up)
2-isopropylmalate synthase: MDLKDYVRIFDTTLRDGEQCPGAAMTENEKLEIASQLATMKVDIIEAGFPVSSPVQFQAVERIARETEGPMIAALARAMKADIEAASKALQPAKKRRIHTFIASSPIHMKYKLGKEPKEVLKMAVEAVTLCRQFVDDVEFSPEDATRSEPEFLRELCEAVIAAGATTINIPDTVGYTTPAEYGGLFKFLLSNVRGAEKIIFSAHCHNDLGLATANSLAAVQNGARQIECTINGIGERAGNTAMEEVVMAMRTRKDTFGIQTQIKTEEIARASYLVKTITGMLVQPNKAIVGANAFAHESGIHQDGVIKHRETYEIMKPETVGLSSNRMVLGRHSGRAGFKDRIVKLGFSPQVEELEAAYQRFLEIADRKKEIYDEDIRALFSEEARKSTGDRFQLEGFTVSTGTKSTPTAGVRILIDGHVREESATGDGPVDAIYKAIQKTTGMDPEVSRLVISPVTEGQDAMAEASVTLEYKGDRVVGKGSSTDIIEACSRAYISALNRL
B4: SpLys4mt1: Lys4 mutant D123N, Schizosaccharomyces pombe (protein, UniProt Q9Y823 1-418, looked up, variant D123N)
chain: MSVSEANGTETIKPPMNGNPYGPNPSDFLSRVNNFSIIESTLREGEQFANAFFDTEKKIQIAKALDNFGVDYIELTSPVASEQSRQDCEAICKLGLKCKILTHIRCHMDDARVAVETGVDGVNVVIGTSQYLRKYSHGKDMTYIIDSATEVINFVKSKGIEVRFSSEDSFRSDLVDLLSLYKAVDKIGVNRVGIADTVGCATPRQVYDLIRTLRGVVSCDIECHFHNDTGMAIANAYCALEAGATHIDTSILGIGERNGITPLGALLARMYVTDREYITHKYKLNQLRELENLVADAVEVQIPFNNYITGMCAFTHKAGIHAKAILANPSTYEILKPEDFGMSRYVHVGSRLTGWNAIKSRAEQLNLHLTDAQAKELTVRIKKLADVRTLAMDDVDRVLREYHADLSDADRITKEASA
B5: SpLys4mt2: Lys4 mutant D123N, V125F, Schizosaccharomyces pombe (protein, UniProt Q9Y823 1-418, looked up, variant D123N V125F)
chain: B4 chain with V125F
B6: SpLys4mt3: Lys4 mutant D123N, V125F, I194L, Schizosaccharomyces pombe (protein, UniProt Q9Y823 1-418, looked up, variant D123N V125F I194L)
chain: B4 chain with V125F, I194L

test system: not listed separately; experiment: Synthase activity assay (DTNB, lysates of BL21 E. coli expressing the candidate); assay type: biochemical; conditions: Table G; 0.5 mM hydroxypyruvate, 0.2 mM acetyl-CoA, pH 7.4, no-substrate background subtracted
Experimental: E coli optimized genes encoding synthases were synthesized and cloned into pTrcHisA (Life Technologies (formerly Invitrogen)). Synthase genes tested are found in Table G. Plasmids containing the optimized synthase genes were transformed into BL21 E. coli cells. Empty plasmid pTrcHisA was also transformed as a negative control. […]. Flasks were incubated at 30° C. at 250 rpm shaking for 2 hours, then protein production was induced with 0.2 mM IPTG and incubated for 4 more hours at 30° C. while shaking. Cells were harvested by centrifugation and pellets were stored at −80° C.
Activity of synthase candidates was assessed with an in vitro assay using DTNB (5,5′-Dithiobis(2-nitrobenzoic acid)) as an indicator. The enzyme activity was tested using either no substrate or hydroxypyruvate as the substrate. The DTNB interacts with the free thio created by the condensation of acetyl-CoA and the substrate present. Unless otherwise specified, all chemicals were purchased from Sigma-Aldrich Chemical Company, St. Louis, Mo.
Cells were lysed using mechanical disruption using a BeadBeater (BopSpec products, Bartlesville, Okla.) following the manufacturer's instructions. The cell lysate was partially clarified by centrifugation (14,000G for 5 minutes). Protein concentrations of the resulting clarified lysates were measured via BioRad total Protein assay using the manufacturer's instructions. Lysates were normalized by protein concentration in 100 mM Tris buffer. The normalized lysates were diluted 1 to 7 in 100 mM Tris buffer. 20 μl of lysate was added to each well for the 96-well plate assay. Each condition was performed in triplicate.
The reaction mixture contains 100 mM Tris pH 7.4, 5 mM MgSO4, 0.2 mM acetyl-CoA, 0.5 mM DTNB, 0.5 mM substrate, hydroxypyruvate. To start the reaction, 180 μl of reaction mix was added to each well already containing 20 μl lysate. The reactions in these microplates were monitored at 412 nm. Readings were taken every 9 seconds for 10 minutes and the data was used to calculate activities of each enzyme. Synthase activity was observed when hydroxypyruvate was the substrate as compared to cells containing empty vector (FIG. 20(a), Table G). Background absorbance as measured by the same reaction with no substrate present were subtracted. Error bars in the graphs reflect the standard deviations calculated for the averages for each condition performed in triplicate. Specific mutations change the activity of the enzymes tested (FIG. 20(b), Table H). Further enzyme engineering will improve specificity and activity of desired enzymatic reaction.

| Molecule | Activity with hydroxy pyruvate [µmol/min/mg] |
| --- | --- |
| AvNifV: candidate synthase NifV, Azotobacter vinelandii, GenBank AAA22169 | 0.054 |
| B1 | 0.095 |
| B2 | 0.022 |
| B3 | 0.045 |

same assay, conditions: Table H, wild type and mutant synthases; 0.5 mM hydroxypyruvate

| Molecule | Activity with hydroxy pyruvate |
| --- | --- |
| B4 | 0.004 |
| B5 | 0.009 |
| B6 | 0.013 |

test system: potential yeast hosts (I. orientalis, S. cerevisiae); experiment: Tolerance of potential yeast hosts: maximum concentration in which growth was detected; assay type: cell-based; conditions: Table E
Experimental: (§1) Two eukaryotic strains, I. orientalis and S. cerevisiae, were tested at pH 3 and pH 5. Three bacterial strains were tested using their individual optimal conditions. E. coli and C. glutamicum were tested at pH 8 and 30° C., and B. firmus was tested at pH 9 and 37° C. I. orientalis was grown in defined yeast media consisting of 5 g/L ammonium sulfate, 0.5 g/L magnesium sulfate heptahydrate, 3 g/L potassium phosphate monobasic, 10 g/L dextrose, 1 mL/L of 10% glycerol stock, 1 mL/L of 1000× trace. The 1000× trace stock solution contains 4 g/L ZnSO4.7H2O, 2 g/L FeSO4.7H2O, 1 g/L MnSO4.H2O, 0.2 g/L CuSO4.5H2O, and 0.8 mL/L H2SO4. S. cerevisiae was grown in buffered defined dextrose media consisting of 50 g/L dextrose, 5 g/L yeast extract, and 40 mL/L 25× DM salts. The 25× DM salt stock solution contains 125 g/L ammonium sulfate, 12.5 g/L magnesium sulfate heptahydrate, 75 g/L potassium phosphate monobasic, and 787.5 g/L water. The bacterial strains were grown in standard LB media consisting of 10 g/L bacto-tryptone, 5 g/L yeast extract, 10 g/L NaCl, and 20 g/L dextrose with addition of 20 g/L glucose.
(§2) Time points were taken over a period of at least 8 hours and up to 24 hours to calculate the rate of growth. Specific growth rate was determined by plotting the natural logarithm of cell number against time. Tolerance was determined by growth rate of cells in the presence of the compound as compared to in the absence of the compound.
(§3) Two eukaryotic strains, I. orientalis and S. cerevisiae, were tested for tolerance to the selected compounds at pH 3 and pH 5. The bacterial strains were grown at their individual optimal conditions, E coli and C. glutamicum at pH 8 and 30° C., and B. firmus and B. cohnii at pH 9 and 37° C. I. orientalis was grown in defined yeast media consisting of 5 g/L ammonium sulfate, 0.5 g/L magnesium sulfate heptahydrate, 3 g/L potassium phosphate monobasic, 10 g/L dextrose, 1 mL/L of 10% glycerol stock, 1 mL/L of 1000× trace. The 1000× trace stock solution contains 4 g/L ZnSO4.7H2O, 2 g/L FeSO4.7H2O, 1 g/L MnSO4.H2O, 0.2 g/L CuSO4.5H2O, and 0.8 mL/L H2SO4. S. cerevisiae was grown in buffered defined dextrose media consisting of 50 g/L dextrose, 5 g/L yeast extract, and 40 mL/L 25×DM salts. The 25×DM salt stock solution contains 125 g/L ammonium sulfate, 12.5 g/L magnesium sulfate heptahydrate, 75 g/L potassium phosphate monobasic, and 787.5 g/L water. The bacterial strains were grown in standard LB media consisting of 10 g/L bacto-tryptone, 5 g/L yeast extract, 10 g/L NaCl, and 20 g/L dextrose with addition of 20 g/L glucose.
as §2

| Molecule | Max conc (maximum concentration in which growth was detected) [g/L] |
| --- | --- |
| CC(C)C(O)(CC(=O)O)C(=O)O (centres unmarked) [2-isopropylmalic acid] | 50 |
| CC(C)C(C(=O)O)C(O)C(=O)O (centres unmarked) [3-isopropylmalic acid] | 50 |

same assay, conditions: Table K

| Molecule | Max conc (maximum concentration in which growth was detected) [g/L] |
| --- | --- |
| C=C(CO)C(=O)OCC [Ethyl hydroxymethyl acrylate] | 20 |
| C=CC(=O)OCCO [Hydroxyethyl acrylate] | 5 |
| C=CC(=O)OCO [Hydroxymethyl acrylate] | 20 |
| C=C1CCOC1=O [MBL] | 5 |
| C=C1CC(C)OC1=O (centres unmarked) [MeMBL, methyl 2-methylene 4 butyrolactone] | 5 |
| Methyl hydroxyethyl acrylate | 5 |

test system: potential bacterial hosts (E. coli, C. glutamicum, B. firmus, B. cohnii); experiment: Tolerance of potential bacterial hosts: highest concentration with growth observed; assay type: cell-based; conditions: Table L
Experimental: as §1, §2, §3, §2

| Molecule | Max conc (maximum concentration in which growth was detected) [g/L] |
| --- | --- |
| C=CC(=O)OCCO [Hydroxyethyl acrylate] | 20 |
| C=CC(=O)OCO [Hydroxymethyl acrylate] | 20 |
| C=C1CCOC1=O [MBL] | 5 |
| C=C1CC(C)OC1=O (centres unmarked) [MeMBL, methyl 2-methylene 4 butyrolactone] | 5 |
| Methyl hydroxyethyl acrylate | 20 |
